In patent US20140037719A1, “STABILIZED PHARMACEUTICAL FORMULATIONS OF A POTENT HCV INHIBITOR” (Robert Majeska, priority 2012, published 2014):

Test: Ames test / genotoxicity of degradation product
Assay type: cell-based

Q: Which Ames result does the source give for `C=C[C@@H]1C[C@]1(N)C(=O)O` [Compound X] here?
A: The Ames result was “Ames positive”.

Q: And the genotoxicity?
A: The genotoxicity was “genotoxic”.
